Test results published in patent US12357598B2, “Treatment of neurodevelopmental disorders” (THE REGENTS OF THE UNIVERSITY OF CALIFORNIA, priority 2018, dated 2025).

Columns and labels:
ddY mice = assay: Novel object recognition test (NORT), offspring after MIA; assay type: in vivo, mouse
Description: Experiments of TPPU in drinking water. For experiment of TPPU (synthesized at UC Davis, CA) in drinking water in juvenile and adolescent stages, TPPU (15 mg/L) or water in drinking water was given in the male offspring from P28 to P56. Subsequently, normal water was given to all groups for 4 weeks (P57-P84). Behavioral tests of adult offspring were performed during adulthood (P70-P84) after prenatal poly(I:C) injections (FIG. 4A).
For experiment of TPPU in drinking water in pregnant stages, TPPU (15 mg/L) or water in drinking water was given in the pregnant mice from E12 to P21. Subsequently, normal water was given to all groups for […] (P21-P42). Behavioral tests of offspring were performed during juvenile stage (P28-P42) after prenatal poly(I:C) injections (FIG. 6A).
Novel Object Recognition Test (NORT): Mice were habituated for 10 minutes in the box for 3 straight days. At 4th day, two objects (differing in shape and color but of similar size) were placed in the box 35.5 cm apart (symmetrically), and each animal was allowed to explore in the box for 5 minutes. […] The time that mice spent exploring each object was recorded. […] The mice were then allowed to explore freely for 5 minutes, and the time spent exploring each object was recorded. […]

sEH = assay: Western blot of sEH in brain regions of juvenile offspring after MIA; assay type: in vivo, mouse
Description: Administration of poly(I:C) into pregnant mice. The schedule of poly(I:C) treatment was performed as reported previously (13,36-39). The pregnant mice were injected intraperitoneally (i.p.) for six consecutive days from E12 to E17 with poly(I:C) (5.0 mg/kg/day, Sigma-Aldrich Co. Ltd., St. Louis, MO, USA) dissolved in physiological saline, or an equivalent volume (5 ml/kg) of saline. The male offspring were separated from their mothers at wearing (P21), and mice were caged each three-five in the groups in clear polycarbonate cage (22.5×33.8×14.0 cm). Mice were housed under controlled temperatures and 12-hour light/dark cycles (lights on between 07:00-19:00 h), with ad libitum food and water.
Collection of brain samples and oxylipin profiling. […]
Western blot analysis. […] 50 μg of protein were measured using the DC protein assay kit (Bio-Rad), and incubated for 5 min at 95° C., with an equal volume of 125 mM Tris-HCl, pH6.8, 20% glycerol, 0.1% bromophenol blue, 10% β-mercaptoethanol, 4% sodium dodecyl sulfate, and subjected to sodium dodecyl sulfate polyacrylamide gel electrophoresis, using 7.5% or AnyKD mini-gels (Mini-PROTEAN® TGX™ Precast Gel; Bio-Rad, CA, USA). […] After final three washes with TBST, bands were detected using enhanced chemiluminescence (ECL) prime Western Blotting Detection system (GE Healthcare Bioscience). […]

polyriboinosinic-polyribocytidilic acid [Poly(I:C)]
exploratory preference in NORT (ddY mice; adult offspring after prenatal poly(I:C) exposure): Decreased
exploratory preference, retention session of NORT (ddY mice; juvenile offspring, poly(I:C)+water group vs saline+water group): significantly lower
sEH protein in striatum and hippocampus (CA1, CA3, DG) (sEH; poly(I:C) 5 mg/kg/day E12-E17): no changes
levels of sEH protein in the PFC (sEH; poly(I:C) 5 mg/kg/day E12-E17, vs saline-treated mice): significantly higher
